These results are taken from US5346913A, “N-iodopropargyl hydantoin compounds, compositions, preparation, and use as antimicrobial agents” (Rohm and Haas Company, priority 1992, dated 1994).

Values after ≈ are worked out from the molar mass of the structure shown.

Common to all, as to type: cell-based
For test [1], the system named is Escherichia coli. Briefly: MIC, broth two-fold serial dilution test, Escherichia coli (Ecol). An excerpt:
(§1) The compounds identified with a prime (') were the non-iodo analogues of the invention compounds, i.e., the compounds of formula III or IV. All data are reported in ppm of active ingredient required to control the respective organism. The indication "No In." means that the compound had no inhibitory activity at 500 ppm which was the maximum tested, and so if the "No In." compound were active, the minimum inhibitory concentration would be above 500 ppm. The comparative tests were not run side-by-side, but were run on different days using the same methods. […] A minimum inhibitory concentration (MIC) value is obtained using a broth, two-fold serial dilution test performed as follows: […] A volume of the stock solution is dispensed into culture media to give an initial starting test concentration of the compound of 500 ppm or 250 ppm. When the test is ready to be done, each vessel in the dilution series, except the first vessel, contains an equal volume of compound free broth. The first vessel contains twice the volume of broth with the starting concentration of test compound. One half of the broth from the first vessel is transferred to the second vessel. After being mixed, one half the resulting volume is removed from the second vessel and transferred to the third vessel. […] Each vessel is then inoculated with a cell suspension of the appropriate test organism. Bacteria are grown in broth and fungi on agar […] is grown in cooling tower media for a time and at a temperature appropriate to the species being tested. At the end of the growth period, the broth is vortexed to disperse the cells. In the case of fungi, the spores are harvested by pipetting water onto the slant and dislodging the spores with a sterile loop. The cell/spore suspension is standardized by controlling incubation time, temperature, and the volume of the diluent. The suspension is then used to inoculate the vessels containing the broth compound. The vessels are then incubated at the appropriate temperature. After the incubation, the vessels are examined for growth/no growth. The MIC is defined as the lowest concentration of compound that results in complete inhibition of growth of the test organism. BACTERIA: Pseudomonas fluorescens (Ps.fl), gram negative; Pseudomonas aerugenosa (Ps.ae), gram negative; Escherichia coli (E.c), gram negative; and Staphylococcus aureus (S.a), gram positive.

Test [2] deals with Aspergillus niger. In words: MIC, broth two-fold serial dilution test, Aspergillus niger (Anig). The following applies: TSB.
Text: as §1, with “INDUSTRIAL FUNGI: Aspergillus niger (A.n); Aureobasidium pullulans (A.p)” for “BACTERIA: Pseudomonas fluorescens (Ps.fl), gram negative; Pseudomonas aerugenosa (Ps.ae), gram negative; Escherichia coli (E.c), gram negative; and Staphylococcus aureus (S.a), gram positive.”

Test [3] deals with Staphylococcus aureus. In words: MIC, broth two-fold serial dilution test, Staphylococcus aureus (Saur).
Text: as §1

For test [4], the system named is Pseudomonas aerugenosa. In words: MIC, broth two-fold serial dilution test, Pseudomonas aerugenosa (Psae).
Text: as §1

One may read the MIC as the lowest concentration found to suppress growth. Low values mean a more susceptible organism, high ones a less susceptible organism. As for `C#CCN1C(=O)N(c2cc(Cl)cc(Cl)c2)C(=O)C1C` (stereo not drawn) [Compound 1', 1-(2-propynyl)-3-(3,5-dichlorophenyl)-5-methylhydantoin, reference compound], the MIC in test [1] (M9G), in test [1] (TSB), in test [2], in test [3] (M9G), in test [3] (TSB) and in test [4] (M9G) was greater than 500 µg/mL in each case. The minimum inhibitory concentration (MIC) in test [4] (TSB) is greater than 500 µg/mL.

Turning to `C#CCN1C(=O)N(Cc2ccccc2)C(=O)C1(C)C` [Compound 8, 3-benzyl-1-propargyl-5,5-dimethylhydantoin, reference compound], the MIC in test [1] (M9G), in test [1] (TSB), in test [2], in test [3] (M9G), in test [3] (TSB) and in test [4] (M9G) was greater than 500 µg/mL each time. Further, the MIC in test [4] (TSB) is greater than 500 µg/mL.

With `CCCCN1C(=O)N(CC#CI)C(C)(C)C1=O` [Compound 9, 1-(3-iodo-2-propynyl)-3-n-butyl-5,5-dimethylhydantoin], the minimal inhibitory concentration (MIC) came out at 16 µg/mL (≈ 46 µM) in test [1] (M9G); 500 µg/mL (≈ 1440 µM) in test [1] (TSB); 2 µg/mL (≈ 5.74 µM) in test [2]; 4 µg/mL (≈ 11.5 µM) in test [3] (M9G); 16 µg/mL (≈ 46 µM) in test [3] (TSB); 64 µg/mL (≈ 184 µM) in test [4] (M9G). Moreover, it took 500 µg/mL (≈ 1440 µM) to inhibit growth in test [4] (TSB) (MIC).

`CCCCCCCCN1C(=O)N(CC#CI)C(C)(C)C1=O` [Compound 10, 1-(3-iodo-2-propynyl)-3-n-octyl-5,5-dimethylhydantoin]: the MIC in test [1] (M9G) was 250 µg/mL (≈ 618 µM); in test [1] (TSB), greater than 500 µg/mL; in test [2], 4 µg/mL (≈ 9.89 µM); in test [3] (M9G) it was 2 µg/mL (≈ 4.95 µM); in test [3] (TSB) it was 4 µg/mL (≈ 9.89 µM); in test [4] (M9G), 125 µg/mL (≈ 309 µM). The molecule also returned an MIC in test [4] (TSB) greater than 500 µg/mL.

As for `C#CCN1C(=O)N(CC#C)C(C)(C)C1=O` [Compound 11, 1,3-bis-(2-propynyl)-5,5-dimethylhydantoin, reference compound], the MIC in test [1] (M9G), in test [1] (TSB), in test [2], in test [3] (M9G), in test [3] (TSB) and in test [4] (M9G) was greater than 500 µg/mL each time. This molecule came in with an MIC in test [4] (TSB) greater than 500 µg/mL.

`C#CCN1C(=O)NC(C)(C)C1=O` [Compound 12, 3-(2-propynyl)-5,5-dimethylhydantoin, reference compound]: the minimal inhibitory concentration (MIC) in test [1] (M9G), in test [1] (TSB), in test [2], in test [3] (M9G), in test [3] (TSB) and in test [4] (M9G) was greater than 500 µg/mL in each case. For the same molecule, in test [4] (TSB), the MIC is greater than 500 µg/mL.

For the molecule `C#CCN1C(=O)N(Cc2ccccc2)C(C)(C)C1=O` [Compound 14, 1-benzyl-3-(propyn-2-yl)-5,5-dimethylhydantoin, reference compound], the MIC in test [1] (M9G), in test [1] (TSB), in test [2], in test [3] (M9G), in test [3] (TSB) and in test [4] (M9G) was greater than 500 µg/mL in each case. The molecule further returned an MIC in test [4] (TSB) greater than 500 µg/mL.

On to `CC1(C)C(=O)N(CC#CI)C(=O)N1Cc1ccccc1` [Compound 14], for which the MIC in test [1] (M9G) is 125 µg/mL (≈ 327 µM); in test [1] (TSB), 250 µg/mL (≈ 654 µM); in test [2] it was 4 µg/mL (≈ 10.5 µM); in test [3] (M9G) it was greater than 500 µg/mL; in test [3] (TSB) it was 64 µg/mL (≈ 167 µM); in test [4] (M9G) it was greater than 500 µg/mL. Further, the MIC in test [4] (TSB) was greater than 500 µg/mL.

Regarding `O=C1CNC(=O)N1CC#CI` [Compound 15, 3-(3-iodo-2-propynyl)-hydantoin], the minimal inhibitory concentration (MIC) in test [1] (M9G) was determined as 64 µg/mL (≈ 242 µM); in test [1] (TSB) it was 64 µg/mL (≈ 242 µM); in test [2] it was 8 µg/mL (≈ 30.3 µM); in test [3] (M9G) it was 64 µg/mL (≈ 242 µM); in test [3] (TSB), 125 µg/mL (≈ 473 µM); in test [4] (M9G), 250 µg/mL (≈ 947 µM). Also, the MIC in test [4] (TSB) was 500 µg/mL (≈ 1890 µM).
